Patent US8658698B2, “Insecticidal compounds” (Syngenta Crop Protection, LLC, priority 2008, dated 2014)

Experiments:
Format in all cases: in vivo
[1] = test system: Tetranychus urticae (Two-Spotted Spider Mite); assay: Tetranychus urticae bean leaf disc spray test; conditions: same protocol, 200 ppm, 8 days
Description: (§1) This Example illustrates the pesticidal/insecticidal properties of compounds of formula (I). The tests were performed as follows:
(§2) Cotton leaf discs were placed on agar in a 24-well microtiter plate and sprayed with test solutions at an application rate of 200 ppm. After drying, the leaf discs were infested with 5 L1 larvae. The samples were checked for mortality, feeding behavior, and growth regulation 3 days after treatment (DAT). The following compounds gave at least 80% control of Spodoptera littoralis: A2, A6, A8, A9, A10, A11, A13, A15, A19, A20, A22, A25, A27, A29, A31, A33, A35, A41, A50, A55, A60, A65, A73, A88, A92, and A94. Heliothis virescens (Tobacco Budworm): Eggs (0-24 h old) were placed in 24-well microtiter plate on artificial diet and treated with test solutions at an application rate of 200 ppm (concentration in well 18 ppm) by pipetting. After an incubation period of 4 days, samples were checked for egg mortality, larval mortality and growth regulation. The following compounds gave at least 80% control of Heliothis virescens: A2, A3, A4, A5, A6, A7, A9, A10, A11, A13, A15, A19, A20, A22, A25, A26, A27, A28, A29, A31, A32, A33, A35, A38, A40, A41, A43, A46, A55, A59, A60, A65, A69, A70, A71, A73, A74, A75, A77, A79, A80, A82, A86, A88, A89, A90, A92, A94, A96, A98, and A100. Plutella xylostella (Diamond Back Moth): A 24-well microtiter plate (MTP) with artificial diet was treated with test solutions at an application rate of 200 ppm (concentration in well 18 ppm) by pipetting. After drying, the MTP's were infested with L2 larvae (7-12 per well). After an incubation period of 6 days, samples were checked for larval mortality and growth regulation. The following compounds gave at least 80% control of Plutella xylostella: A3, A4, A5, A6, A7, A8, A10, A15, A16, A18, A19, A20, A22, A25, A26, A27, A28, A29, A31, A32, A33, A35, A38, A40, A55, A69, A71, A73, A74, A75, A76, A77, A78, A80, A82, A86, A87, A88, A89, A92, A94, A96, A97, A98, and A99. Diabrotica balteata (Corn Root Worm): A 24-well microtiter plate (MTP) with artificial diet was treated with test solutions at an application rate of 200 ppm (concentration in well 18 ppm) by pipetting. After drying, the MTP's were infested with larvae (L2) (6-10 per well). After an incubation period of 5 days, samples were checked for larval mortality, and growth regulation. The following compounds gave at least 80% control of Diabrotica balteata: A5, A6, A7, A14, A15, A18, A24, A35, A53, A55, A70, A71, A75, A79, A84, A85, A88, A92, A93, A95, A96, A97, A98, A99, A100, A101, A102, A103, and A104. Myzus persicae (Green Peach Aphid): Each well of a 24-well microtiter plate is filled with 0.6 ml 30% sucrose solution, containing 12.5 ppm of the test compounds. The wells are covered with streched parafilm and infested with a mixed population of Myzus persicae. After an incubation period of 6 days, samples are checked for mortality (feeding activity). The following compounds gave at least 80% control of Myzus persicae: A4, A6, A10, A11, A15, A19, A20, A24, A27, A29, A33, A34, A36, A37, A39, A40, A41, A42, A43, A44, A45, A46, A47, A48, A49, A55, A60, and A82. Tetranychus urticae (Two-Spotted Spider Mite): Bean leaf discs on agar in 24-well microtiter plates were sprayed with test solutions at an application rate of 200 ppm. After drying, the leaf discs are infested with mite populations of mixed ages. 8 days later, discs are checked for egg mortality, larval mortality, and adult mortality. The following compounds gave at least 80% control of Tetranychus urticae: A6, A11, A15, A19, A20, A22, A26, A35, A58, and A64.

[2] = test system: Myzus persicae (Green Peach Aphid); assay: Myzus persicae sucrose solution feeding test; conditions: same protocol, 12.5 ppm, 6 days
Description: as §1, §2

[3] = test system: Plutella xylostella (Diamond Back Moth); assay: Plutella xylostella larvae test on artificial diet; conditions: same protocol, 200 ppm (18 ppm in well), 6 days
Description: as §1, §2

[4] = test system: Heliothis virescens (Tobacco Budworm); assay: Heliothis virescens egg test on artificial diet; conditions: same protocol, 200 ppm (18 ppm in well), 4 days
Description: as §1, §2

[5] = test system: Diabrotica balteata (Corn Root Worm); assay: Diabrotica balteata larvae test on artificial diet; conditions: same protocol, 200 ppm (18 ppm in well), 5 days
Description: as §1, §2

[6] = test system: Spodoptera littoralis (Egyptian Cotton Leafworm); assay: Spodoptera littoralis cotton leaf disc spray test; conditions: same protocol, 200 ppm, 3 DAT
Description: as §1
Spodoptera littoralis (Egyptian Cotton Leafworm)
as §2

Measured: effect on mortality, feeding behavior, or growth regulation

CCCCNC(=O)c1ccc(C(=O)Nc2c(C)cc(C(F)(C(F)(F)F)C(F)(F)F)cc2C)cc1C [A1, N-1-butyl-N-4-[2,6-dimethyl-4-(1,2,2,2-tetrafluoro-1-trifluoro-methyl-ethyl)-phenyl]-2-methyl-terephthalamide]
no or little effect: all assays above

CCOC(=O)C1CC=CCC1NC(=O)c1ccc(C(=O)Nc2c(C)cc(C(F)(C(F)(F)F)C(F)(F)C(F)(F)F)cc2CC)cc1C (stereo not drawn) [A12]
no or little effect: all assays above

CCc1cc(C(F)(C(F)(F)F)C(F)(F)C(F)(F)F)cc(C)c1NC(=O)c1ccc(C(=O)NC(C)COC)c(C)c1 (stereo not drawn) [A17]
no or little effect: all assays above

CCc1cc(C(F)(C(F)(F)F)C(F)(F)C(F)(F)F)cc(C)c1NC(=O)c1ccc(C(=O)NC2CCCCC2C)c(C)c1 (stereo not drawn) [A21]
no or little effect: all assays above

CCc1cc(C(F)(C(F)(F)F)C(F)(F)C(F)(F)F)cc(C)c1NC(=O)c1ccc(C(=O)NCCCN2CCCC2)c(C)c1 (stereo not drawn) [A23]
no or little effect: all assays above

CCc1cc(C(F)(C(F)(F)F)C(F)(F)C(F)(F)F)cc(C)c1NC(=O)c1ccc(C(=O)NCc2ccccc2OC(F)(F)F)c(C)c1 (stereo not drawn) [A30]
no or little effect: all assays above

CCc1cc(C(F)(C(F)(F)F)C(F)(F)C(F)(F)F)cc(C)c1NC(=O)c1ccc(C(=O)Nc2ccccc2-c2cc3ccccc3[nH]2)c(C)c1 (stereo not drawn) [A51]
no or little effect: all assays above

CCc1cc(C(F)(C(F)(F)F)C(F)(F)C(F)(F)F)cc(C)c1NC(=O)c1ccc(C(=O)Nc2ccccc2N2CCOCC2)c(C)c1 (stereo not drawn) [A52]
no or little effect: all assays above

CCc1cc(C(F)(C(F)(F)F)C(F)(F)C(F)(F)F)cc(C)c1NC(=O)c1ccc(C(=O)Nc2cc(C)nn2C)c(C)c1 (stereo not drawn) [A54]
no or little effect: all assays above

CCc1cc(C(F)(C(F)(F)F)C(F)(F)C(F)(F)F)cc(C)c1NC(=O)c1ccc(C(=O)Nc2n[nH]c(SC)n2)c(C)c1 (stereo not drawn) [A56]
no or little effect: all assays above

CCc1cc(C(F)(C(F)(F)F)C(F)(F)C(F)(F)F)cc(C)c1NC(=O)c1ccc(C(=O)Nc2ncccc2C)c(C)c1 (stereo not drawn) [A57]
no or little effect: all assays above

CCc1cc(C(F)(C(F)(F)F)C(F)(F)C(F)(F)F)cc(C)c1NC(=O)c1ccc(C(=O)Nc2cc(-c3ccccc3)[nH]n2)c(C)c1 (stereo not drawn) [A61]
no or little effect: all assays above
